{
  "source": "ChEMBL document CHEMBL4613261",
  "about": "“Metabolic and Pharmaceutical Aspects of Fluorinated Compounds” (J Med Chem, 2020)",
  "key": {"[1]": {"test": "Drug degradation assessed as 4-[[9-[(2-fluoro-4-pyridyl)methyl]-10-oxo-9-anthryl]methyl]-1H-pyridin-2-one metabolite formation by measuring relative abundance measured after preserving compound for 6 months at 40 degreeC by LC-MS/MS analysis", "assay_type": "physicochemical", "conditions": "4383 h"}, "[2]": {"test": "Drug degradation in presence of 1% magnesium stearate and lactose monohydrate measured after preserving compound for 1 to 3 months at 40 degreeC by LC-MS/MS analysis", "assay_type": "physicochemical", "conditions": "read-out: Drug degradation"}, "[3]": {"biological_target": "T1, Alanine racemase, biosynthetic (Escherichia coli K-12, UniProt P0A6B4)", "T1 sequence (P0A6B4 whole entry)": "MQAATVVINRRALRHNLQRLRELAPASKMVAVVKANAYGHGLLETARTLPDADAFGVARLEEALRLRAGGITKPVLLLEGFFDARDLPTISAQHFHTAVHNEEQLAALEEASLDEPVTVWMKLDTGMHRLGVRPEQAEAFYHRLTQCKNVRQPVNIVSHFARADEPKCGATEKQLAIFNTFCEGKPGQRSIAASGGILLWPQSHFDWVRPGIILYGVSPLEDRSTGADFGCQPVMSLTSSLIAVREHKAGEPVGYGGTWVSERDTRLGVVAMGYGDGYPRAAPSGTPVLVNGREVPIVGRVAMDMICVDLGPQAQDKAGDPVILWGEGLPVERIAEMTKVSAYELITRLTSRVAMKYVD", "test": "Substrate activity at Escherichia coli B alanine racemase assessed as (S)-6-amino-2-((E)-1-carboxy-1-((E)-(3-hydroxy-2-methyl-5-(phosphonooxymethyl)pyridin-4-yl)methyleneamino)prop-1-en-2-ylamino)hexanoic acid formation", "assay_type": "ADME"}, "[4]": {"biological_target": "T1, Alanine racemase, biosynthetic", "test": "Substrate activity at Escherichia coli B alanine racemase assessed as (2S)-6-amino-2-(((Z)-1-carboxyallylideneamino)(3-hydroxy-2-methyl-5-(phosphonooxymethyl)pyridin-4-yl)methylamino)hexanoic acid adduct formation", "assay_type": "ADME"}, "[5]": {"biological_target": "T1, Alanine racemase, biosynthetic", "test": "Substrate activity at Escherichia coli B alanine racemase assessed as 2-oxobut-3-enoic acid formation", "assay_type": "ADME"}, "[6]": {"test": "Prodrug conversion in Sprague-Dawley rat assessed as acyclovir recovery in urine at 0.1 mmol/kg, po measured over 48 hrs by HPLC analysis", "assay_type": "ADME, organism-based", "conditions": "in vivo"}, "[7]": {"test": "Drug metabolism assessed as first order rate constant for 6-formyltryptophan formation", "assay_type": "physicochemical"}, "[8]": {"test": "Half life in rat at 10 mg/kg, iv", "assay_type": "ADME, organism-based", "conditions": "in vivo"}, "[9]": {"test": "Drug recovery in bile duct-cannulated Sprague-Dawley rat feces at 10 mg/kg, po administered as single dose using 14C labelled compound measured after 48 hrs", "assay_type": "ADME, organism-based", "conditions": "in vivo"}, "[10]": {"test": "Volume of distribution at steady state in Sprague-Dawley rat at 0.5 mg/kg, iv administered as single dose measured after 0.083 to 48 hrs", "assay_type": "ADME, organism-based", "conditions": "in vivo, read-out: Vdss"}, "[11]": {"test": "Lipophilicity, logD of the compound", "assay_type": "physicochemical", "conditions": "octanol/water"}, "[12]": {"test": "Drug recovery in bile duct-cannulated rhesus monkey feces at 10 mg/kg, po administered as single dose using 14C labelled compound measured after 96 hrs", "assay_type": "ADME, organism-based, Macaca mulatta", "conditions": "in vivo"}, "[13]": {"test": "Volume of distribution at steady state in rhesus monkey at 0.1 mg/kg, iv administered as single dose measured after 0.083 to 48 hrs", "assay_type": "ADME, organism-based, Macaca mulatta", "conditions": "in vivo, read-out: Vdss"}, "[14]": {"test": "Half life in dog", "assay_type": "ADME, Canis lupus familiaris", "conditions": "in vivo"}, "[15]": {"test": "Half life in rat", "assay_type": "ADME", "conditions": "in vivo"}, "[16]": {"test": "Half life in human hepatocytes", "assay_type": "ADME, cell-based, Hepatocyte"}, "[17]": {"test": "Elimination half life in human at 25 to 1200 mg, po administered as suspension measured after 5 to 816 hrs by HPLC-MS/MS analysis", "assay_type": "ADME, organism-based", "conditions": "in vivo, read-out: beta t1/2"}, "[18]": {"test": "Drug recovery in rat excreta assessed as metabolically unchanged parent compound at 100 mg/kg, po", "assay_type": "ADME, organism-based", "conditions": "read-out: Drug recovery"}, "[19]": {"test": "Photodegradation of compound in deionized H20 at 10 uM by HPLC analysis", "assay_type": "physicochemical", "conditions": "deionized water"}, "[20]": {"test": "Half life in human at 0.25 mg, iv administered as single dose measured up to 168 hrs", "assay_type": "ADME, organism-based", "conditions": "in vivo"}, "[21]": {"test": "Volume of distribution in human at 0.25 mg, iv administered as single dose measured up to 168 hrs", "assay_type": "ADME, organism-based", "conditions": "in vivo"}, "[22]": {"test": "Oral bioavailability in human at 2 mg administered as single dose and measured up to 168 hrs", "assay_type": "ADME, organism-based", "conditions": "in vivo"}, "[23]": {"biological_target": "T2, Cytochrome P450 2C8 (Homo sapiens, UniProt P10632)", "T2 sequence (P10632 whole entry)": "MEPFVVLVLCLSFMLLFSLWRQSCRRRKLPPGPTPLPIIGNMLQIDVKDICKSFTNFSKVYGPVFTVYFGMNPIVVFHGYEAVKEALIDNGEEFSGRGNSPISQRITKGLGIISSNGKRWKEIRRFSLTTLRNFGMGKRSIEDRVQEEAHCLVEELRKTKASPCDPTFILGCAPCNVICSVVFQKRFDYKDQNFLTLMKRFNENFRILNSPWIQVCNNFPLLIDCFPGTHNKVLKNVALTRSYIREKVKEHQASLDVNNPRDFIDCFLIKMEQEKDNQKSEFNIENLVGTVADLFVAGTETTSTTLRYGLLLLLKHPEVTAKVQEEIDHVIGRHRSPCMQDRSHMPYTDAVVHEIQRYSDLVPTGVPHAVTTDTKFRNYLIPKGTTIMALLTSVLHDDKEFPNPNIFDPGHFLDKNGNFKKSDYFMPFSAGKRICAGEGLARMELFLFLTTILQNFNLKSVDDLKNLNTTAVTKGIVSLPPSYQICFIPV", "test": "Inhibition of CYP2C8 (unknown origin) assessed as reduction in amodiaquine N-deethylation", "assay_type": "ADME"}, "[24]": {"biological_target": "Cytochrome P450 2C9 (Homo sapiens, UniProt P11712)", "sequence (P11712 whole entry)": "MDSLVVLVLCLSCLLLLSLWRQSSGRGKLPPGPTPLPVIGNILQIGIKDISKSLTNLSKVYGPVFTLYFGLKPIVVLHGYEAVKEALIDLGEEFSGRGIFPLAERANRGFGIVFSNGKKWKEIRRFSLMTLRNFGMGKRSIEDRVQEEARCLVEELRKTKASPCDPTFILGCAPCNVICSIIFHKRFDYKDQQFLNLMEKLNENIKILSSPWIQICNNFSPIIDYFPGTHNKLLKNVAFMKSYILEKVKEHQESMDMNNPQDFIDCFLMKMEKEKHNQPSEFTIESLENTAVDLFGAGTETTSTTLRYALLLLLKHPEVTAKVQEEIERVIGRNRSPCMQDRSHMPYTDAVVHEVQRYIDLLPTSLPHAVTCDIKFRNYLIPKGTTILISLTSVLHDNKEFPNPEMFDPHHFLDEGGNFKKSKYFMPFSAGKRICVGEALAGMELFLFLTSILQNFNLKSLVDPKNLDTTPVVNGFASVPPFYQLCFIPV", "test": "Inhibition of CYP2C9 (unknown origin) assessed as reduction in diclofenac 4-hydroxylation", "assay_type": "ADME"}, "[25]": {"biological_target": "T3, Adenosylhomocysteinase (Rattus norvegicus, UniProt P10760)", "T3 sequence (P10760 whole entry)": "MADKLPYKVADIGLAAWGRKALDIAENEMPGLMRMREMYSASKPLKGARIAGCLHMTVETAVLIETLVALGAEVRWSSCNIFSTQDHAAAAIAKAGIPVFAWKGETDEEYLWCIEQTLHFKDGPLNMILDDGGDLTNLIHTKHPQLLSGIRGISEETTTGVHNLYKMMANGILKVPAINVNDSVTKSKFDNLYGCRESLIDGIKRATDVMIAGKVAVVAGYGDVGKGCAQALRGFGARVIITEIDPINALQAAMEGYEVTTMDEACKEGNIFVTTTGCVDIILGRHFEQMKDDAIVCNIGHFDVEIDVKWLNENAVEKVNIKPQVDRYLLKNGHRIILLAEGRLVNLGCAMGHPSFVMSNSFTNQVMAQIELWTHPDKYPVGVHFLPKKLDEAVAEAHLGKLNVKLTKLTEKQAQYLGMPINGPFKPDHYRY", "test": "Reversible inhibition of rat liver S- adenosyl-L-homocysteine hydrolase using SAH as substrate by spectrophotometric method"}, "[26]": {"test": "Drug metabolism in human", "assay_type": "ADME", "conditions": "read-out: Drug metabolism"}, "[27]": {"tested_on": "Homo sapiens", "test": "Induction of fluoride toxicity in human assessed as fluoride level in plasma at 200 mg, po BID administered for at least 6 months (reference value: 2.54 uM)", "assay_type": "organism-based", "conditions": "in vivo"}},
  "data": [
    {"smiles": "O=C1c2ccccc2C(Cc2ccnc(F)c2)(Cc2ccnc(F)c2)c2ccccc21", "values": [
      {"measurement": "Activity", "setting": "[1]", "value": 0.5, "unit": "%"},
      {"measurement": "degraded", "setting": "[2]", "value": "< 0.1", "unit": "%"}
    ]},
    {"smiles": "C=C=C(/N=C/c1c(COP(=O)(O)O)cnc(C)c1O)C(=O)O", "values": [
      {"measurement": "Activity", "setting": "[3]", "value": 12, "unit": "%"},
      {"measurement": "Activity", "setting": "[4]", "value": 31, "unit": "%"},
      {"measurement": "Activity", "setting": "[5]", "value": 57, "unit": "%"}
    ]},
    {"smiles": "CC(C)C(=O)OCCOCn1cnc2c(F)nc(N)nc21", "values": [
      {"measurement": "Drug recovery", "setting": "[6]", "value": 51, "unit": "%"}
    ]},
    {"smiles": "N[C@@H](Cc1c[nH]c2cc(C(F)F)ccc12)C(=O)O", "values": [
      {"measurement": "K", "setting": "[7]", "value": 0.0039, "unit": "min⁻¹"}
    ]},
    {"smiles": "CCNC(C)Cc1cccc(SC(F)(F)F)c1", "note": "(racemic) [TIFLOREX]", "values": [
      {"measurement": "half-life", "setting": "[8]", "value": 7.4, "unit": "h"}
    ]},
    {"smiles": "COc1cc(F)c(C(C)C)cc1-c1ccc(C(F)(F)F)cc1CN1C(=O)O[C@H](c2cc(C(F)(F)F)cc(C(F)(F)F)c2)[C@@H]1C", "note": "[ANACETRAPIB]", "values": [
      {"measurement": "Drug recovery", "setting": "[9]", "value": 80, "unit": "%"},
      {"measurement": "Vd", "setting": "[10]", "value": 1.1, "unit": "L/kg"},
      {"measurement": "logD", "setting": "[11]", "value": 7.1},
      {"measurement": "Drug recovery", "setting": "[12]", "value": 90, "unit": "%"},
      {"measurement": "Vd", "setting": "[13]", "value": 0.3, "unit": "L/kg"}
    ]},
    {"smiles": "N[C@H]1C[C@@H](C(=O)O)CC1=C(F)F", "note": "[CPP-115 FREE BASE]", "values": [
      {"measurement": "half-life", "setting": "[14]", "value": "1 to 2.3", "unit": "h"},
      {"measurement": "half-life", "setting": "[15]", "value": "1 to 2.3", "unit": "h"},
      {"measurement": "half-life", "setting": "[16]", "value": 20, "unit": "h"}
    ]},
    {"smiles": "Cc1cc(Nc2ccc(S(F)(F)(F)(F)F)cc2)n2nc(C(C)(F)F)nc2n1", "note": "[DSM-265]", "values": [
      {"measurement": "half-life", "setting": "[17]", "value": "86 to 118", "unit": "h"}
    ]},
    {"smiles": "N#Cc1c[nH]cc1-c1cccc2c1OC(F)(F)O2", "note": "[FLUDIOXONIL]", "values": [
      {"measurement": "dose excreted", "setting": "[18]", "value": 12, "unit": "%"}
    ]},
    {"smiles": "CNCCC(Oc1ccc(C(F)(F)F)cc1)c1ccccc1", "note": "(configuration not stated) [FLUOXETINE]", "values": [
      {"measurement": "half-life at 10 µM", "setting": "[19]", "value": 55.2, "unit": "h"}
    ]},
    {"smiles": "C[C@@H]1C[C@H]2[C@@H]3C[C@H](F)C4=CC(=O)C=C[C@]4(C)[C@@]3(F)[C@@H](O)C[C@]2(C)[C@@]1(OC(=O)c1ccco1)C(=O)SCF", "note": "[FLUTICASONE FUROATE]", "values": [
      {"measurement": "half-life", "setting": "[20]", "value": 15.3, "unit": "h"},
      {"measurement": "Vd", "setting": "[21]", "value": 642, "unit": "L"},
      {"measurement": "bioavailability", "setting": "[22]", "value": 1.6, "unit": "%"}
    ]},
    {"smiles": "Cc1ccc(NC(=O)C2(c3ccc4c(c3)OC(F)(F)O4)CC2)nc1-c1cccc(C(=O)O)c1", "note": "[LUMACAFTOR]", "values": [
      {"measurement": "IC50", "setting": "[23]", "value": 12, "unit": "µM"},
      {"measurement": "IC50", "setting": "[24]", "value": 32, "unit": "µM"}
    ]},
    {"smiles": "Nc1ncnc2c1ncn2[C@@H]1C=C(CO)[C@@H](O)[C@H]1O", "note": "[NEOPLANOCIN A]", "values": [
      {"measurement": "Ki", "setting": "[25]", "value": 0.00839, "unit": "µM"}
    ]},
    {"smiles": "FCOC(C(F)(F)F)C(F)(F)F", "note": "[SEVOFLURANE]", "values": [
      {"measurement": "metabolised", "setting": "[26]", "value": "2 to 5", "unit": "%"}
    ]},
    {"smiles": "C[C@@H](c1ncncc1F)[C@](O)(Cn1cncn1)c1ccc(F)cc1F", "note": "[VORICONAZOLE]", "values": [
      {"measurement": "Activity", "setting": "[27]", "value": 14.32, "unit": "µM"}
    ]}
  ]
}
